In paper PMC11407372, “New imidazolidindionedioximes and their Pt(II) complexes: synthesis and investigation of their antitumoral activities on breast cancer cells” (Turkish Journal of Chemistry, 2024):

Test system: CCD-1079Sk cells
Assay: Apoptosis assay (Annexin V/7-AAD, flow cytometry)
Assay type: cell-based
Conditions: sample at IC50 concentration, 24 h
Procedure: (§1) FITC-Annexin V/7-AAD kit was used for the apoptosis experiment. Briefly, the cells were seeded into 12-well plates at 2 × 10^5 cells/well in 1 mL volume and cells were inoculated overnight. After that, 500 μL of fresh medium and 500 μL of sample at the concentration of IC50 were added to the wells. The cells were incubated with the samples for 24 h, then detached using 0.5 mL of trypsin solution, cells were collected and centrifuged at 3000 g for 3 min. The cells were washed with 200 μL of cell staining buffer, then dispersed in 100 μL of binding buffer. Following this, 5 μL of FITC-Annexin V and 10 μL of 7-AAD were added, and the mixture was incubated in the dark for 30 min. The samples were then analyzed by flow cytometry.
(§2) The Annexin V conjugated Alexa Fluor 488/7-AAD binding assay is based on the difference in fluorescence intensity between apoptotic and nonapoptotic cells stained with the fluorescent Annexin V/7-AAD, which is measured by flow cytometry. Therefore, an apoptosis assay was performed to determine the rate of live, apoptotic, and necrotic cells (Table 2, Figure S43). It is seen that compounds induce early and late apoptosis in MDA-MB-231 cells.

Compound | cell % Apoptotic, CCD-1079Sk | cell % Necrotic, CCD-1079Sk
[O-]N=C1C(=NO)N(c2ccccc2)CN1c1ccccc1.[O-]N=C1C(=NO)N(c2ccccc2)CN1c1ccccc1.[Pt+2] [L 1a Pt-b] | 3.65 ± 0.03% | 4.15 ± 0.21%
[O-]N=C1C(=NO)N(c2ccc(F)cc2F)CN1c1ccc(F)cc1F.[O-]N=C1C(=NO)N(c2ccc(F)cc2F)CN1c1ccc(F)cc1F.[Pt+2] [L 1c Pt-b] | 1.85 ± 0.03% | 1.80 ± 0.14%
O[N+]1=C2C(=[N+](O)[Pt-2]1([Cl])[Cl])N(c1ccc(F)cc1F)CN2c1ccc(F)cc1F [L 1c Pt-m] | 3.45 ± 0.03% | 3.25 ± 0.07%

Test system: MDA-MB-231 cells
Assay: Apoptosis assay (Annexin V/7-AAD, flow cytometry)
Assay type: cell-based, human
Conditions: sample at IC50 concentration, 24 h
Procedure: as §1, §2

Compound | cell % Apoptotic, MDA-MB-231 | cell % Necrotic, MDA-MB-231
O[N+]1=C2C(=[N+](O)[Pt-2]1([Cl])[Cl])N(c1ccc(F)cc1)CN2c1ccc(F)cc1 [L 1b Pt-m] | 5.95 ± 0.25% | 0.65 ± 0.07%
[O-]N=C1C(=NO)N(c2ccccc2)CN1c1ccccc1.[O-]N=C1C(=NO)N(c2ccccc2)CN1c1ccccc1.[Pt+2] [L 1a Pt-b] | 7.65 ± 0.25% | 1.15 ± 0.07%
[O-]N=C1C(=NO)N(c2ccc(F)cc2F)CN1c1ccc(F)cc1F.[O-]N=C1C(=NO)N(c2ccc(F)cc2F)CN1c1ccc(F)cc1F.[Pt+2] [L 1c Pt-b] | 8.00 ± 0.21% | 3.20 ± 0.14%
O[N+]1=C2C(=[N+](O)[Pt-2]1([Cl])[Cl])N(c1ccc(F)cc1F)CN2c1ccc(F)cc1F [L 1c Pt-m] | 6.20 ± 0.14% | 0.55 ± 0.07%

Test system: MCF-7 cells
Assay: Apoptosis assay (Annexin V/7-AAD, flow cytometry)
Assay type: cell-based, human
Conditions: sample at IC50 concentration, 24 h
Procedure: as §1
as §2, with “It is seen that compounds induce early and late apoptosis in MDA-MB-231 cells.” left out

Compound | cell % Apoptotic, MCF-7 | cell % Necrotic, MCF-7 | apoptosis induction in MCF-7 cells
O[N+]1=C2C(=[N+](O)[Pt-2]1([Cl])[Cl])N(c1ccc(F)cc1)CN2c1ccc(F)cc1 [L 1b Pt-m] | 3.65 ± 0.18% | 0.95 ± 0.21% | –
[O-]N=C1C(=NO)N(c2ccccc2)CN1c1ccccc1.[O-]N=C1C(=NO)N(c2ccccc2)CN1c1ccccc1.[Pt+2] [L 1a Pt-b] | 4.65 ± 0.81% | 0.95 ± 0.35% | –
[O-]N=C1C(=NO)N(c2ccc(F)cc2F)CN1c1ccc(F)cc1F.[O-]N=C1C(=NO)N(c2ccc(F)cc2F)CN1c1ccc(F)cc1F.[Pt+2] [L 1c Pt-b] | 2.05 ± 0.03% | 5.35 ± 1.34% | induces more cancerous cells to undergo apoptosis
O[N+]1=C2C(=[N+](O)[Pt-2]1([Cl])[Cl])N(c1ccc(F)cc1F)CN2c1ccc(F)cc1F [L 1c Pt-m] | 5.95 ± 0.46% | 3.40 ± 0.71% | induces more cancerous cells to undergo apoptosis

Test system: MDA-MB-231 cells
Assay: Cell cycle assay (PI, flow cytometry)
Assay type: cell-based, human
Conditions: sample at IC50 concentration, 24 h; 24.5% in control cells
Procedure: (§3) The cell cycle kit was used for the cell cycle experiment. Briefly, the cells were seeded into 12-well plates in a volume of 1 mL at 2 × 10^5 cells/well, and cells were inoculated overnight. After that, 500 μL of fresh medium and 500 μL of the sample at the concentration of IC50 were added to the wells. The cells were incubated with the samples for 24 h, then detached using 0.5 mL of trypsin solution, cells were collected and centrifuged at 3000 g for 3 min. The collecting cells were washed with 1 mL of PBS and fixed with 1 mL of 70% cold ethanol at −20 °C for 24 h. After that, 200 μL of staining solution containing propidium iodide (PI) and RNAse reagents were added to the cells, and the cells were incubated for 30 min in the dark. Cell cycle profiles of synthesized compounds were analyzed using a flow cytometer (BD Accuri C6). The data were analyzed through BD software. Each assay was investigated in triplicate.

Compound | MDA-MB-231 cell population in the G1-phase
[O-]N=C1C(=NO)N(c2ccccc2)CN1c1ccccc1.[O-]N=C1C(=NO)N(c2ccccc2)CN1c1ccccc1.[Pt+2] [L 1a Pt-b] | 49.6%

Same assay, conditions: summary in conclusion; MDA-MB-231 and/or MCF-7

Compound | effect on cell cycle
[O-]N=C1C(=NO)N(c2ccccc2)CN1c1ccccc1.[O-]N=C1C(=NO)N(c2ccccc2)CN1c1ccccc1.[Pt+2] [L 1a Pt-b] | regulate the cell cycle and increase the G1 population
[O-]N=C1C(=NO)N(c2ccc(F)cc2F)CN1c1ccc(F)cc1F.[O-]N=C1C(=NO)N(c2ccc(F)cc2F)CN1c1ccc(F)cc1F.[Pt+2] [L 1c Pt-b] | regulate the cell cycle and increase the G1 population

Test system: MCF-7 cells
Assay: Cell cycle assay (PI, flow cytometry)
Assay type: cell-based, human
Conditions: sample at IC50 concentration, 24 h; 59.5% in control cells
Procedure: as §3

Compound | MCF-7 cell population in the G1-phase
[O-]N=C1C(=NO)N(c2ccccc2)CN1c1ccccc1.[O-]N=C1C(=NO)N(c2ccccc2)CN1c1ccccc1.[Pt+2] [L 1a Pt-b] | 64.4%
[O-]N=C1C(=NO)N(c2ccc(F)cc2F)CN1c1ccc(F)cc1F.[O-]N=C1C(=NO)N(c2ccc(F)cc2F)CN1c1ccc(F)cc1F.[Pt+2] [L 1c Pt-b] | 64.1%

Test system: CCD-1079Sk healthy fibroblast cell line
Assay: MTT cytotoxicity assay
Assay type: cell-based
Conditions: 24 h, mean ± standard deviation
Procedure: (§4) CCD-1079Sk healthy fibroblast cell line, MCF-7, and MDA-MB-231 breast cancer cell lines were used in this study. The cells were grown in DMEM/F12 medium containing 10% fetal bovine serum (FBS) and 100 U/mL penicillin/streptomycin at 37 °C in a humidified incubator with 5% CO2. After bringing 80% confluency, the cells were detached using a trypsin solution. For further experiments, cells were resuspended in the growth medium after collection and centrifugation.
(§5) To determine cytotoxicity, the MTT assay was performed using L1aPt-m, L1bPt-m, L1cPt-m, L1aPt-b, L1bPt-b, L1cPt-b, cisPt, and bicalutamide (bical) samples at 10 different concentrations ranging from 100 μM to 0.19 μM (100, 50, 25, 12.5, 6.25, 3.12, 1.56, 0.78, 0.39, and 0.19 μM). The samples were dissolved in DMSO and diluted with the medium. Initial DMSO concentration was kept below 1% to avoid toxicity from the solvent. Briefly, the cells were seeded to 96-well plates at 5 × 10^3 cells/well in a volume of 200 μL, and cells were inoculated overnight. After that, old medium was removed, 100 μL of fresh medium and 100 μL of sample were added to the wells. The cells were incubated with the samples for 24 h. At the end of incubation with the samples, 30 μL of 3-(4,5-dimethylthiazol-2-yl)-2,5-diphenyltetrazolium bromide (MTT) solution was added. After 3 h the medium was removed and 100 μL of DMSO was added to dissolve the formazan crystals. Then the absorbance values were recorded at 540 nm using an ELISA microplate reader (Synergy H1, BioTek). All the experiments were carried out in triplicates, and the results were presented as a mean ± standard deviation. The IC50 values of samples were calculated using a percentage of relative cell viability via GraphPad Prism 5. The viability percentages of cells were calculated using the following formula:
(§6) %relative cell viability=(Abssample/Abscontrol)×100.

Compound | IC50
O[N+]1=C2C(=[N+](O)[Pt-2]1([Cl])[Cl])N(c1ccc(F)cc1)CN2c1ccc(F)cc1 [L 1b Pt-m] | 54.6 ± 6.25 µM
[O-]N=C1C(=NO)N(c2ccccc2)CN1c1ccccc1.[O-]N=C1C(=NO)N(c2ccccc2)CN1c1ccccc1.[Pt+2] [L 1a Pt-b] | 47.8 ± 6.42 µM
[O-]N=C1C(=NO)N(c2ccc(F)cc2F)CN1c1ccc(F)cc1F.[O-]N=C1C(=NO)N(c2ccc(F)cc2F)CN1c1ccc(F)cc1F.[Pt+2] [L 1c Pt-b] | 73.9 ± 4.96 µM
O[N+]1=C2C(=[N+](O)[Pt-2]1([Cl])[Cl])N(c1ccc(F)cc1F)CN2c1ccc(F)cc1F [L 1c Pt-m] | 45.2 ± 5.55 µM

Test system: MDA-MB-231 human breast cancer cell line
Assay: MTT cytotoxicity assay
Assay type: cell-based
Conditions: 24 h, mean ± standard deviation
Procedure: as §4, §5, §6

Compound | IC50
O[N+]1=C2C(=[N+](O)[Pt-2]1([Cl])[Cl])N(c1ccc(F)cc1)CN2c1ccc(F)cc1 [L 1b Pt-m] | 8.64 ± 7.71 µM
[O-]N=C1C(=NO)N(c2ccccc2)CN1c1ccccc1.[O-]N=C1C(=NO)N(c2ccccc2)CN1c1ccccc1.[Pt+2] [L 1a Pt-b] | 5.26 ± 5.53 µM
[O-]N=C1C(=NO)N(c2ccc(F)cc2F)CN1c1ccc(F)cc1F.[O-]N=C1C(=NO)N(c2ccc(F)cc2F)CN1c1ccc(F)cc1F.[Pt+2] [L 1c Pt-b] | 6.94 ± 5.57 µM
O[N+]1=C2C(=[N+](O)[Pt-2]1([Cl])[Cl])N(c1ccc(F)cc1F)CN2c1ccc(F)cc1F [L 1c Pt-m] | 25 ± 6.61 µM

Test system: MCF-7 human breast cancer cell line
Assay: MTT cytotoxicity assay
Assay type: cell-based
Conditions: 24 h, mean ± standard deviation
Procedure: as §4, §5, §6

Compound | IC50
O[N+]1=C2C(=[N+](O)[Pt-2]1([Cl])[Cl])N(c1ccc(F)cc1)CN2c1ccc(F)cc1 [L 1b Pt-m] | 6.91 ± 3.16 µM
[O-]N=C1C(=NO)N(c2ccccc2)CN1c1ccccc1.[O-]N=C1C(=NO)N(c2ccccc2)CN1c1ccccc1.[Pt+2] [L 1a Pt-b] | 5.58 ± 2.29 µM
[O-]N=C1C(=NO)N(c2ccc(F)cc2F)CN1c1ccc(F)cc1F.[O-]N=C1C(=NO)N(c2ccc(F)cc2F)CN1c1ccc(F)cc1F.[Pt+2] [L 1c Pt-b] | 5.9 ± 2.04 µM
O[N+]1=C2C(=[N+](O)[Pt-2]1([Cl])[Cl])N(c1ccc(F)cc1F)CN2c1ccc(F)cc1F [L 1c Pt-m] | 5.56 ± 2.39 µM
